The values below come from US8552035B2, “Phenanthrenone compounds, compositions and methods” (Pfizer Inc., priority 2008, dated 2013).

Molecules are shown by their SMILES.

The subject of one data set is IL-1β. Briefly: LPS-induced human whole blood, IL-1β release. In kind it is cell-based. Here is the method:
(§1) Venous blood from human donors was collected as 10 ml aliquots in tubes containing sodium heparin (BD Vacutainer from Becton Dickinson and Company, Franklin Lakes, N.Y.). Blood was added to sterile polystyrene round bottom 96-well tissue culture plates (Corning Costar) at 180 Blood was placed in a humidified 37 C incubator with 5% CO2 while compounds were prepared (nearly 60 minutes).
(§2) Compounds were prepared from 10 mM stock solutions in dimethylsulfoxide (DMSO, Sigma-Aldrich). Stock compound was diluted in DMSO to give appropriate starting concentration then diluted serially 1/3 in DMSO (i.e. 15 μl compound+30 μl DMSO), followed by diluting each serial dilution 1/167 into vehicle solution (2% DMSO in phosphate buffered saline (Dulbecco's Phosphate Buffered Saline without calcium chloride without magnesium chloride, Invitrogen Corporation, Carlsbad Calif.)). Compound or vehicle was added to blood in 10 μl aliquots as triplicates, omitting the outside wells to minimize possible edge effects. The final highest concentration of each compound in the assay ranged from 3 to 0.3 μM. Final DMSO concentration in the assay was 0.1%. The plate containing the samples was gently vortexed to mix and replaced in the incubator. LPS stock (E. coli serotype 0111:B4, Sigma-Aldrich), stored in aliquots of 100 μg/ml in RPMI at −20° C., was diluted […] in RPMI to make a working stock solution. After 60 minutes of incubation, 10 μl of the prepared LPS working stock was added to the blood to a final concentration of 100 ng/ml. Wells to be used as negative control received RPMI media with no LPS. The plate was again gently vortexed and the plates incubated overnight for 22 hours. Following incubation, the blood was centrifuged at 1500×g for 5 minutes and the plasma removed to either freeze at −20° C. or assay for cytokine release.
(§3) IL-1β, IFNγ and TNFα protein levels were measured using Meso Scale assay kits (Meso Scale Discovery, Gaithersburg, Md., U.S.A.). Reagents were allowed to come to room temperature. Meso Scale plates were blocked with 150 μl of Meso Scale Block B diluent, gently shaking at room temperature for 60 minutes. Plates were washed 3× with wash buffer (PBS, Invitrogen Corporation, with 0.05% Tween-20, Sigma-Aldrich). Calibrators for standard curves were prepared in human plasma/serum assay diluent as a 1/5 serial dilution to achieve final concentrations ranging from 50000 pg/ml to 3.2 pg/ml. Samples were added at 10 to 20 μl/well and calibrators were added at 20 μl/well then incubated at room temperature with gentle shaking for 2 hours. Plates were again washed 3× with wash buffer. Detection antibody was diluted in human plasma/serum antibody diluent to 1 μg/ml and added to the plate at 20 μl/well. Plates were incubated as before for 2 hours and washed again. Read Buffer T (4×) was diluted 1:1 with mqH20 to 2× concentration and 150 μl added to each well. Plates were read on the SECTOR Imager 6000 (Meso Scale Discovery) to generate raw signal values.
(§4) Individual sample signal values were compared to positive and negative controls (vehicle treated blood with LPS and vehicle treated blood without LPS, respectively) to generate % inhibition. Triplicate values were averaged for each donor. The values for three or four donors were averaged and graphed using 4-parameter fit curves in the LabStats plug-in for the Microsoft Excel application.

Another data set deals with TNFα. Briefly: LPS-induced human whole blood, TNFα release. In kind it is cell-based. Here is the method: as §1, §2, §3, §4
For a further data set, the system named is IFNγ. Description: LPS-induced human whole blood, IFNγ release. In kind it is cell-based. The procedure:
as §1, §2, §3, §4

The subject of another data set is LPS-induced TNFα. Briefly: 28-day mouse side-effect model, LPS-induced serum TNFα suppression. Type of data set: in vivo. As to conditions: oral gavage 28 days, LPS challenge. Here is the method:
(§5) 10-12 week old female Swiss Webster mice (Taconic, Germantown, N.Y., U.S.A.) weighing 27-29 grams are used in accordance with the guidelines of the Institutional Animal Care and Use Committee and in accordance with NIH guidelines on laboratory animal welfare. Mice are acclimated to the Pfizer animal facility for 3-7 days prior to being placed on study. Prednisolone and DAGR compounds are administered by oral gavage for a total of 28 days. Each treatment group generally contains 8-10 mice. To establish a dosing regimen for the studies, a pilot pharmacodynamic time course experiment is conducted to quantify TNFa repression after a single ED80 dose (determined from the acute LPS endotoxemia mouse model). […] DAGR compounds vary in their required frequency of doses.
(§6) Body weights are measured on the first and last day of each experiment. Blood samples are obtained after ˜3 weeks of dosing for steady-state pharmacokinetic analysis. To assess compound effects on LPS-induced TNF-a, all mice receive an intraperitoneal injection of LPS (Salmonella Typhosa, Sigma, St. Louis, L-7895) 2.5 hr after the last dose on day 28. Mice are sacrificed 90 min. after LPS administration. Serum samples are assayed for osteocalcin and TNFa using the Linco multiplex assay (St. Charles, Mo.) and Luminex 100 (Austin, Tex.). Samples are diluted 1:20 and the assay is run according to manufacturer's instructions. An osteocalcin standard is purchased separately from Biomedical Technologies Incorporated (Stoughton, Mass.). Serum insulin is measured to assess compound effects on insulin resistance. Insulin was measured using the UltraSensitive Mouse EIA kit from Alpco Diagnostics (Salem, N.H.) following the manufacturer's protocol.
(§7) ED50 and ED80 values are obtained for the various parameters using four-parameter logistic fits of data. For each experiment/dose group, outliers are detected by calculating the number of standard deviations each mouse's value was from the mean of their group and then dividing by the standard deviation of the group. The means and standard deviations used in this calculation omitted the value being examined so that, if it were an outlier, it would have no influence. If the value being examined is more than 2.5 standard deviations from the mean, it was not used in the rest of the calculations.
(§8) Percent inhibition values are then calculated for each animal using the means of the vehicle and 10 mpk prednisone control groups. The individual mouse percent inhibition values are then fit to a four-parameter logistic model using the area under curve mean for each group. Since all four parameters are estimated and the lower plateau is not fixed at 0% and the upper plateau was not fixed at 100%, the ED50 and ED80 values are calculated by using an inverse calibration formula for a response equal to 50% or 80%. The designation “nd” means not determined.

A further data set concerns serum insulin. Description: 28-day mouse side-effect model, serum insulin. The conditions noted are these: oral gavage 28 days. Type of data set: in vivo. The procedure: as §5, §6, §7, §8
In another data set the test system is osteocalcin. Description: 28-day mouse side-effect model, serum osteocalcin suppression. In kind it is in vivo. The conditions noted are these: oral gavage 28 days. The procedure: as §5, §6, §7, §8
Where [1] appears, read: Homo sapiens, 0.457247 nM, mean of donors.
Setting [2] is: Homo sapiens, 1.371742 nM, mean of donors.
The mark [3] stands for this setting: Homo sapiens, 4.115226 nM, mean of donors.
The mark [4] stands for this setting: Homo sapiens, 12.34568 nM, mean of donors.
The mark [5] stands for this setting: Homo sapiens, 37.03704 nM, mean of donors.
[6] abbreviates: Homo sapiens, 111.1111 nM, mean of donors.
Setting [7] is: Homo sapiens, 333.3333 nM, mean of donors.
[8] abbreviates: Homo sapiens, 1000 nM, mean of donors.
The mark [9] stands for this setting: ex vivo LPS-stimulated human whole blood, extent of inhibition, concentration not given.

As a reminder, the inhibition is the change of the read-out against control, counted positive when it falls. Consider `C[C@]12C=CC(=O)C=C1CC[C@@H]1[C@@H]2[C@@H](O)C[C@@]2(C)[C@H]1CC[C@]2(O)C(=O)CO` [Prednisolone], for which the inhibition at 0.000457247 µM in the data set with IL-1β (setting [1]) is -0.571%; with TNFα (setting [1]), 2.76%; in the data set on IFNγ (setting [1]) it was 1.19%. The figures for the inhibition at 0.00137174 µM in the data set with IL-1β (setting [2]), in the data set with TNFα (setting [2]) and in the data set on IFNγ (setting [2]) were -1.26%, 6.36% and 9.75%, respectively. Further, the inhibition at 0.00411523 µM came to 0.84% in the data set with IL-1β (setting [3]), 8.95% with TNFα (setting [3]) and 25.2% with IFNγ (setting [3]). In addition, the values for the inhibition at 0.0123457 µM in the data set on IL-1β (setting [4]), with TNFα (setting [4]) and with IFNγ (setting [4]) were 7.17%, 19.6% and 34.7%, respectively. The inhibition at 0.037037 µM was found to be 36.7% in the data set with IL-1β (setting [5]), 49.2% with TNFα (setting [5]) and 70.7% with IFNγ (setting [5]). The results for the inhibition at 0.111111 µM in the data set on IL-1β (setting [6]), in the data set with TNFα (setting [6]) and with IFNγ (setting [6]) were 61.9%, 67.1% and 85.2%, respectively. Further, the inhibition at 0.333333 µM in the data set on IL-1β (setting [7]) was 87.6%; with TNFα (setting [7]), 86.9%; with IFNγ (setting [7]), 94.8%. For the same molecule, the inhibition at 1 µM came out at 91.8% with IL-1β (setting [8]), 90.4% with TNFα (setting [8]) and 96.4% in the data set on IFNγ (setting [8]). Also, in the data set on IL-1β (setting [9]), the “level of inhibition of IL-1” value is reported as “full inhibition”. The “level of inhibition of TNF” value with TNFα (setting [9]) is given as “full inhibition”. In addition, in the data set with IFNγ (setting [9]), the “level of inhibition of IFN” value was “full inhibition”.

In general, ED50 refers to the dose that gives a 50% effect, or the effect in half of the subjects. For the molecule `Cc1nc(Br)ccc1NC(=O)c1ccc2c(c1)CC[C@@H]1C[C@@](O)(c3ccccc3)[C@](C)(O)C[C@@]21Cc1ccccc1` [Comparator B, (4bR,6R,7R,8aR)-4b-benzyl-N-(6-bromo-2-methylpyridin-3-yl)-6,7-dihydroxy-6-methyl-7-phenyl-4b,5,6,7,8,8a,9,10-octahydrophenanthrene-2-carboxamide], the ED50 with LPS-induced TNFα (672 h, read-out: TNFα Suppression (ED50 dose)) was 0.083 mg/kg. The “TNFα Suppression (ED80 dose)” value in the data set with LPS-induced TNFα was found to be 0.45. In addition, the ED50 at 28 days in the data set on serum insulin (female, Swiss Webster, read-out: Insulin (ED50 dose)) came out at 1.04 mg/kg; with osteocalcin (female, Swiss Webster, read-out: Osteocalcin Suppression (ED50 dose)), 0.21 mg/kg. Also, in the data set with serum insulin, the “Insulin (ED80 dose)” value came to 7.58. Moreover, in the data set on osteocalcin, the “Osteocalcin Suppression (ED80 dose)” value is recorded as 0.97.
